This note sets out measurements from ChEMBL document CHEMBL4619814, “Identification and Development of 1,4-Diaryl-1,2,3-triazolo-Based Ureas as Novel FLT3 Inhibitors” (ACS Med Chem Lett, 2020).

The subject of series [1] is Receptor-type tyrosine-protein kinase FLT3 (Homo sapiens), P36888 [UNDEFINED MUTATION]. The conditions noted are these: BaF3.
Description: Inhibition of FLT3 ITD mutant expressed in human BaF3 cells assessed as reduction in cell growth incubated for 72 hrs by CCK8 assay
For series [2] the test system is unchanged. The conditions noted are these: MV4-11.
Description: Inhibition of FLT3 ITD mutant expressed in human MV4-11 cells assessed as reduction in cell growth incubated for 72 hrs by CCK8 assay
A short description of a further series: in vitro. The conditions noted are these: mouse, BaF3 cells.

Where only a bound is given, the exact number is not on record here.

Receptor-type tyrosine-protein kinase FLT3 (Homo sapiens), P36888 [UNDEFINED MUTATION], sequence (P36888 whole entry, looked up, change not shown): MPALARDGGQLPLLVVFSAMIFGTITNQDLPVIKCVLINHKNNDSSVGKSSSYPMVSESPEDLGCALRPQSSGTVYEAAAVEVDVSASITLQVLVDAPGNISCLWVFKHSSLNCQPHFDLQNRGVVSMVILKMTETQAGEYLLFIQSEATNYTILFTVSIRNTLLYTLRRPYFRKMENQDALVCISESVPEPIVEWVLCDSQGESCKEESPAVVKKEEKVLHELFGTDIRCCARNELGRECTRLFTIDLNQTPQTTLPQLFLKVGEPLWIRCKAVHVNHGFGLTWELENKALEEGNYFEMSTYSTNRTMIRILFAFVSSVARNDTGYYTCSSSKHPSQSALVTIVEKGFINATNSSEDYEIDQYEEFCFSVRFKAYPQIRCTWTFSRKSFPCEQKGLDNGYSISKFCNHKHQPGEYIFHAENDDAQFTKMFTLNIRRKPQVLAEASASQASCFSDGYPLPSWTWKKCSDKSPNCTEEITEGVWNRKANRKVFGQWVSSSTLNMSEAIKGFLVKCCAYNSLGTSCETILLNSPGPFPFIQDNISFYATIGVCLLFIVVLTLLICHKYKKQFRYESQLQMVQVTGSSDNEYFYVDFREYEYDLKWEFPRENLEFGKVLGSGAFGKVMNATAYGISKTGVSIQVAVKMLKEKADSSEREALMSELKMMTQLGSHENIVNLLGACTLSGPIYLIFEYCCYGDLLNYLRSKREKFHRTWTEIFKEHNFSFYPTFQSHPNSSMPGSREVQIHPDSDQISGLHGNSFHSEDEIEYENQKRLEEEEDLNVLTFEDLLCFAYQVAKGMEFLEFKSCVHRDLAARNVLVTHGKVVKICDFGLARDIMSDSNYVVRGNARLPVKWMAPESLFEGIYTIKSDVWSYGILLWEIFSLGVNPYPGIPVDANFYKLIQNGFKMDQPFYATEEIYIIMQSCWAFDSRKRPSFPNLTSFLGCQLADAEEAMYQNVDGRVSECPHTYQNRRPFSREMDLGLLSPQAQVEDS
Description for in vitro: Cytotoxicity against human BAF3 cells assessed as growth inhibition incubated for 72 hrs by CCK8 assay

As to `CC(C)(C)c1cc(NC(=O)Nc2ccc(-c3cn(-c4ccc(OCCN5CCOCC5)c([N+](=O)[O-])c4)nn3)cc2)no1`, the concentration for 50% growth inhibition (GI50) (as a rule, the concentration giving 50% growth inhibition) in series [1] worked out at 0.0554 µM; in series [2], 0.0392 µM. Moreover, the GI50 at 72 h in “in vitro” is more than 3 µM.

With `CC(C)(C)c1cc(NC(=O)Nc2ccc(-c3cn(-c4ccc(OCCN5CCOCC5)c(Cl)c4)nn3)cc2)no1`, the concentration for 50% growth inhibition (GI50) was found to be 0.0028 µM in series [1] and 0.0215 µM in series [2]. The GI50 at 72 h in “in vitro” stood at 1.38 µM.

For `COc1cc(-c2cn(-c3ccc(OCCN4CCOCC4)cc3)nn2)ccc1NC(=O)Nc1cc(C(C)(C)C)on1`, the GI50 in series [1] is 0.851 µM; in series [2], 1.22 µM. Besides, the concentration for 50% growth inhibition (GI50) at 72 h in the series “in vitro” was 1.51 µM.

With `CC(C)(C)c1cc(NC(=O)Nc2ccc(-c3cn(-c4ccc(OCCN5CCOCC5)c(C(F)(F)F)c4)nn3)cc2)no1`, the 50% growth inhibitory concentration (GI50) in series [1] came to 0.0485 µM; in series [2], 0.106 µM. Further, the GI50 at 72 h in the series “in vitro” worked out at 1.53 µM.

`CC(C)(C)c1cc(NC(=O)Nc2ccc(-c3cn(-c4ccc(OCCN5CCOCC5)cc4)nn3)c(Cl)c2)no1`: the results for the GI50 in series [1] and in series [2] were 0.003 µM and 0.012 µM, respectively. This molecule returned a GI50 at 72 h in “in vitro” of more than 3 µM.

`CC(C)(C)c1cc(NC(=O)Nc2ccc(-c3cn(-c4ccc(OCCN5CCOCC5)cc4)nn3)cc2)no1` showed a GI50 in series [2] of 0.004 µM. In the series “in vitro”, the GI50 at 72 h was more than 3 µM.

With `Cc1cc(-c2cn(-c3ccc(OCCN4CCOCC4)cc3)nn2)ccc1NC(=O)Nc1cc(C(C)(C)C)on1`, the GI50 was 0.0615 µM in series [1] and 0.344 µM in series [2]. Further, the 50% growth inhibitory concentration (GI50) at 72 h in “in vitro” worked out at 2.16 µM.

In series [2], `CC(C)(C)c1cc(NC(=O)Nc2ccc(-c3cn(-c4ccc(OCCN5CCCC5)cc4Cl)nn3)cc2)no1` returned a GI50 of 0.005 µM. In addition, the GI50 at 72 h in the series “in vitro” worked out at 2.04 µM.

In series [2], `CC(C)(C)c1cc(NC(=O)Nc2ccc(-c3cn(-c4ccc(OCCN5CCOCC5)cc4F)nn3)cc2)no1` registered a GI50 of 0.0051 µM. Further, in the series “in vitro”, the concentration for 50% growth inhibition (GI50) at 72 h was more than 3 µM.

Regarding `CC(C)(C)c1cc(NC(=O)Nc2ccc(-c3cn(-c4ccc(OCCN5CCOCC5)cc4Br)nn3)cc2)no1`, the values for the GI50 in series [1] and in series [2] were 0.0023 µM and 0.0057 µM, respectively. Moreover, halving of growth in the series “in vitro” (GI50 at 72 h) required 2.02 µM.

As to `CC(C)(C)c1cc(NC(=O)Nc2ccc(-c3cn(-c4ccc(OCCN5CCOCC5)cc4)nn3)cc2F)no1`, the GI50 in series [1] turned out to be 0.0042 µM; in series [2], 0.0196 µM. Besides, in the series “in vitro”, the 50% growth inhibitory concentration (GI50) at 72 h is more than 3 µM.

As for `CC(C)(C)c1cc(NC(=O)Nc2ccc(-c3cn(-c4ccc(OCCN5CCOCC5)cc4)nn3)c(F)c2)no1`, the concentration for 50% growth inhibition (GI50) in series [1] stood at 0.0015 µM; in series [2], 0.0103 µM. The molecule further gave a 50% growth inhibitory concentration (GI50) at 72 h in “in vitro” of more than 3 µM.

As for `CC(C)(C)c1cc(NC(=O)Nc2ccc(-c3cn(-c4ccc(OCCCN5CCOCC5)cc4Cl)nn3)cc2)no1`, the GI50 in series [1] was 0.0015 µM; in series [2], 0.0062 µM. Besides, in the series “in vitro”, the GI50 at 72 h was more than 3 µM.

For the molecule `Cc1cc(-n2cc(-c3ccc(NC(=O)Nc4cc(C(C)(C)C)on4)cc3)nn2)ccc1OCCN1CCOCC1`, the concentration for 50% growth inhibition (GI50) in series [1] amounted to 0.001 µM; in series [2], 0.0071 µM. Also, in the series “in vitro”, the GI50 at 72 h came out at 1.97 µM.

Regarding `CC(C)(C)c1cc(NC(=O)Nc2ccc(-c3cn(-c4ccc(OCCN5CCOCC5)cc4C(F)(F)F)nn3)cc2)no1`, the 50% growth inhibitory concentration (GI50) in series [1] is 0.0405 µM; in series [2] it was 0.0586 µM. In addition, in the series “in vitro”, the GI50 at 72 h was more than 3 µM.

For the molecule `COc1cc(-n2cc(-c3ccc(NC(=O)Nc4cc(C(C)(C)C)on4)cc3)nn2)ccc1OCCN1CCOCC1`, growth in series [2] was halved (GI50) at 0.0048 µM. Also, in “in vitro”, the GI50 at 72 h is more than 3 µM.

`CN(C)CCOc1ccc(-n2cc(-c3ccc(NC(=O)Nc4cc(C(C)(C)C)on4)cc3)nn2)c(Cl)c1` displayed a concentration for 50% growth inhibition (GI50) in series [2] of 0.004 µM. For the same molecule, the 50% growth inhibitory concentration (GI50) at 72 h in the series “in vitro” was more than 3 µM.

For the molecule `CC(C)(C)c1cc(NC(=O)Nc2ccc(-c3cn(-c4ccc(OCCN5CCCCC5)cc4Cl)nn3)cc2)no1`, in series [2], the 50% growth inhibitory concentration (GI50) was determined as 0.0056 µM. Besides, halving of growth in “in vitro” (GI50 at 72 h) required 1.96 µM.

Turning to `CC(C)(C)c1cc(NC(=O)Nc2ccc(-c3cn(-c4ccc(OCCN5CCOCC5)cc4)nn3)cc2Cl)no1`, the GI50 in series [1] amounted to 0.165 µM; in series [2], 0.498 µM. This molecule also registered a GI50 at 72 h in the series “in vitro” of more than 3 µM.
